From US20060148732A1, “Inhibition of NF-kappaB by triterpene compositions” (priority 2000, published 2006)

System: NF-κB in Jurkat cells
Assay: EMSA of TNF-induced NF-κB activation
Type: cell-based, human
Settings: for TNF-induced NF-κB activation: Jurkat cells; for decrease in NF-κB levels: pretreatment with 2 ml (so in the source), TNF 100 pM
Description: Next, in order to further study the mechanism by which the active components inhibited tumor cells, the TNF-alpha induced activation of the transcription factor NF-κB was analyzed in Jurkat cells (3×10^6) which had been treated with 1-2 μg/ml of UA-BRF-004-DELEP-F035 and UA-BRF-004Pod-DELEP-F094. The study was carried out as follows: Jurkat cells were pretreated with 1-2 μg/ml of F035 or F094 for 15 h at 37° C. Cells were harvested and resuspended in 1 ml RPMI and treated with 100 pM of TNF-alpha for 30 min at 37° C. After TNF-alpha treatment, nuclear extracts were prepared according to Schreiber et al (1989). Briefly, the cells were washed with ice cold PBS and suspended in 0.4 ml of lysis buffer (10 mM HEPES, pH 7.9, 10 mM KCl, 0.1 mM EDTA, […], 0.1 mM EGTA, 1 mM dithiothreitol, 0.5 mM PMSF, 2 μg/ml of leupeptin, 2 μg/ml of aprotinin and 0.5 mg/ml benzamidine). The cells were allowed to sit on ice for 15 min and 25 μl of 10% Nonidet-40 was added to the cells. The tubes were mixed on the vortex and microcentrifuged for 30 s. The nuclear pellet was resuspended in 25 μl of ice cold nuclear extraction buffer (20 mM HEPES, pH 7.9, 0.4 M NaCl, 1 mM EDTA, 1 mM EGTA, 1 mM dithiothreitol, 1 mM PMSF, 2 μg/ml leupeptin, 2.0 μg/ml aprotinin and 0.5 mg/ml benzamidine) and tubes were incubated on ice with intermittent agitation. The nuclear extract was microcentrifuged for […] at 4° C. and supernatants were stored at −70° C.
An electrophoretic mobility shift assay was performed by incubating the nuclear extracts (7 μg of protein) with ^32P-labeled NF-κB oligonucleotides (SEQ ID NO:1; NF-κB consensus oligonucleotide; Santa Cruz Biotechnology) in presence of 0.5 μg of poly di-dc in a binding buffer (25 mM HEPES, pH 7.9, 0.5 mM EDTA, 0.5 mM dithiothreitol, 1% Nonidet P-40, 5% glycerol and 50 mM NaCl for 20 min at 37° C.) (Nabel and Baltimore, 1987; Collart et al., 1990; Hassanain et al., 1993). The DNA-protein complex formed was separated from free oligonucleotide on 5% native polyacrylamide gel using buffer containing 50 mM Tris, 200 mM glycine and 1 mM EDTA. The gel was fixed in 10% acetic acid and dried and the bands were visualized using autoradiography with intensifying screen at −70° C.
An EMSA to study the effect of crude (F035) and pure extracts D1 and G1 on TNF (Genetech Inc.) induced NF-κB was done as described earlier. Jurkat cells (1×10^6/ml) were treated with different concentrations of crude and pure extracts for 15 hr at 37° C. Next the cells were exposed to 100 pM of TNF for 15 min at 37° C. Nuclear extracts were prepared as described before. Nuclear extracts were incubated with 16 fmol ^32P-end-labeled 45-mer double-stranded NF-κB oligonucleotide from the human immunodeficiency virus long terminal repeat,
for 15 min at 37° C. in the presence of 2 μg of poly (dI-dC). The DNA protein complex was separated from free oligonucleotide on 7.5% native polyacrylamide gels. The radioactive bands from the dried gels were visualized and quantitated by a PhosphoImager (Molecular Dynamics, Sunnyvale, Calif.) using ImageQuant software.
Treatment of Cells with Monoterpene Glycosides. Jurkat cells were taken at 1×10^6/ml in complete medium and treated with 2 μg/ml of F094, monoterpene/triterpene glycoside D1, or monoterpene/triterpene glycoside G1 for 8-16 h at 37° C. At the end of the treatment, cells were washed in complete medium and counted. An equal number of viable cells was used for different experiments.
Preparation of Cytoplasmic and Nuclear Extracts. Jurkat cells (2×10^6/ml) treated with F094 or the isolated monoterpene/triterpene glycosides G1 and/or D1 were exposed to TNF (1 nM for 15 min) at 37° C. After washing the cells in cold PBS, they were suspended in 0.4 ml of cytoplasmic extraction buffer (10 mM HEPES, pH 7.9, 10 mM KCl, 0.1 mM EDTA, 0.1 mM EGTA, 1 mM DTT, 0.5 mM phenylmethylsulfonylfluoride (PMSF), 2 μg/ml of leupeptin, 2 μg/ml aprotinin, 0.5 mg/ml benzamidine) for 15 min on ice. […]

Structure (SMILES)	TNF-induced NF-κB activation	decrease in NF-κB levels (Jurkat) [%]	potency in inhibiting TNF-induced NF-κB relative to mixture (Jurkat)	decrease in TNF-induced NF-κB (Jurkat, 0.5 μg/ml for 16 h, TNF 1 nM) [%]	effect of DTT (100 μM, 2 h pretreatment) on inhibition of NF-κB activation (Jurkat, 2 μg/ml for 8 h)	inhibition of TNF-induced NF-κB (Jurkat, 2 μg/ml for 16 h, TNF 1 nM)	time of maximal inhibition of TNF-induced NF-κB (Jurkat, 2 μg/ml, 1-16 hours, TNF 1 nM) [h]
C=C[C@](C)(O)CC/C=C(\CO)C(=O)O[C@H]1[C@H](O)[C@@H](O)[C@H](O[C@@](C)(C=C)CC/C=C(\CO)C(=O)O[C@H]2C[C@]3(C(=O)O[C@@H]4O[C@H](CO)[C@@H](O)[C@H](O)[C@H]4O[C@@H]4O[C@@H](C)[C@H](O[C@@H]5O[C@@H](CO)[C@H](O)[C@H]5O)[C@@H](O[C@@H]5O[C@H](CO)[C@@H](O)[C@H](O)[C@H]5O)[C@H]4O)[C@H](O)C[C@]4(C)C(=CC[C@@H]5[C@@]6(C)CC[C@H](O[C@@H]7O[C@H](CO[C@@H]8O[C@H](C)[C@H](O)[C@H](O)[C@H]8O[C@@H]8OC[C@@H](O)[C@H](O)[C@H]8O)[C@@H](O)[C@H](O)[C@H]7NC(C)=O)C(C)(C)[C@@H]6CC[C@]54C)[C@@H]3CC2(C)C)O[C@@H]1C [Fraction D1]	potent inhibitors	87	–	–	–	–	–
C=C[C@](C)(O)CC/C=C(\C)C(=O)O[C@H]1[C@H](O)[C@@H](O)[C@H](O[C@@](C)(C=C)CC/C=C(\CO)C(=O)O[C@H]2C[C@]3(C(=O)O[C@@H]4O[C@H](CO)[C@@H](O)[C@H](O)[C@H]4O[C@@H]4O[C@@H](C)[C@H](O[C@@H]5O[C@@H](CO)[C@H](O)[C@H]5O)[C@@H](O[C@@H]5O[C@H](CO)[C@@H](O)[C@H](O)[C@H]5O)[C@H]4O)[C@H](O)C[C@]4(C)C(=CC[C@@H]5[C@@]6(C)CC[C@H](O[C@@H]7O[C@H](CO[C@@H]8O[C@H](C)[C@H](O)[C@H](O)[C@H]8O[C@@H]8OC[C@@H](O)[C@H](O)[C@H]8O)[C@@H](O)[C@H](O)[C@H]7NC(C)=O)C(C)(C)[C@@H]6CC[C@]54C)[C@@H]3CC2(C)C)O[C@@H]1C [Fraction G1]	potent inhibitors	54	more potent than the mixture	~50	reversed	almost complete inhibition	16
